# Experimental data from patent publication US20250325508A1, “MODULATORS OF PROTEASOME DYNAMICS AND/OR FUNCTION, COMPOSITIONS, METHODS, AND THERAPEUTIC USES THEREOF” (TECHNION RESEARCH & DEVELOPMENT FOUNDATION LIMITED, priority 2022, published 2025).
# Experiments:
# exportin1 = target: T1, exportin1 (Homo sapiens, UniProt O14980); test: Localization of exportin1 substrates (p65, APC, NES-GFP); type: cell-based; conditions: HeLa cells
# T1 construct: endogenous in cells; host or cells: HeLa
# Protocol: Cells were seeded on glass cover slips for 36 h. Following the indicated treatments, they were fixed with 4% PFA for 15 min, washed with phosphate-buffered saline (PBS) and incubated in PBS containing 10% goat serum for 1 h at room temperature, followed by 2 h incubation with the indicated primary antibody. Following extensive wash with PBS, the fixed cells were incubated with the relevant secondary antibody for 1 h, washed and mounted. Images were acquired using Zeiss LSM 700 confocal microscope (Zeiss, Oberkochen, Germany).
# HeLa cells [1] = test: Degradation of radiolabeled proteins; type: cell-based, human; conditions: short-term starvation
# Protocol: Cells were labeled with [^35S]-methionine and cysteine (20 μCi/ml) for 16 h. This was followed by extensive washing and further incubation in a medium containing 2 mM of the two unlabeled amino acids for 8 h. Degradation rates were assessed by determining the release of labeled amino acids to the incubation medium relative to the radioactivity remained in the cellular proteins (using Trichloroacetic acid precipitation to separate between the two) [R. Gropper et al., Biomed Biochim Acta 50, 321-332 (1991)]. The figure presents mean+/−SD and Student's T-Test p-values of three replicates.
# proteasome = test: Live imaging of proteasome activity probe Me4BodipyFL-Ahx3Leu3VS; type: cell-based, human; conditions: addition to the starvation medium, HeLa cells
# Protocol: Live cell proteasome activity was followed as previously described [C. R. Berkers et al., Mol Pharm 4, 739-748 (2007)]. In brief, Me4BodipyFL-Ahx3Leu3VS was added to the medium to a final concentration of 1 μM. Following incubation for 15 min, the cells were visualized by a Zeiss LSM 700 confocal microscope. In vitro proteasome activity assay was carried out as previously described [O. Braten et al., Proc. Natl. Acad. Sci. 113, E4639-47 (2016)]. In brief, cellular fractions were incubated at 37° C. for 30 min with 5 μM Suc-LLVY-AMC (Succinyl-Leu-Leu-Val-Tyr-amido-4-methylcoumarin) in a reaction buffer (40 mM Tris-HCl pH 7.2, 2 mM DTT, 5 mM MgCl2, 10 mM creatine phosphate, 0.1 mg/ml creatine phosphate kinase, 5 mM ATP). Reactions were stopped by adding 1% SDS, and fluorescence was measured at 360/460 nm (ex/em).
# HeLa cells [2] = test: Proteomic mass-spectrometric analysis of cellular protein levels; type: cell-based, human; conditions: St.+LMB or St.+YWF vs Cont.
# Protocol: 2-3 mg of cell extract protein in 8 M Urea and 100 mM ammonium bicarbonate, were incubated with DTT (2.8 mM; 30 min at 60° C.), modified with iodoacetamide (8.8 mM; 30 min at room temperature in the dark), and digested (overnight at 37° C.) with modified trypsin (Promega; 1:50 enzyme-to-substrate ratio) in 2 M Urea and 25 mM ammonium bicarbonate. Additional second trypsinization was carried out for 4 h. The tryptic peptides were desalted using Sep-Pak C18 (Waters) and dried. 10 μg of protein were used for proteome analysis as described under Mass spectrometry.
# Tryptic peptides were analyzed by LC-MS/MS using a Q Exactive plus mass spectrometer (Thermo Fisher Scientific) fitted with a capillary HPLC (easy nLC 1000, Thermo). […]
# The mass spectrometry raw data were analyzed by the MaxQuant software (version 1.4.1.2, http://www.maxquant.org) for peak picking and quantification. […] The MaxQuant software was used for label-free semi-quantitative analysis [based on extracted ion currents (XICs) of peptides], enabling quantification from each LC/MS run for each peptide identified in any of the experiments. In samples that were SILAC-labeled, quantification was also carried out using the MaxQuant software. […]
# HeLa cells [3] = test: Amino acids level measurement (LC-MS); type: cell-based, human
# Protocol: Metabolic analysis was carried out as previously described [G. M. MacKay et al., 1st Ed. (Elsevier Inc., 2015)]. Briefly, cells were rapidly washed 3 times with ice-cold PBS and extracted with an aqueous solution of 50% Methanol, and 30% Acetonitrile. Samples were centrifuged at 16,000×g for 10 min at 4° C., and the supernatants were analyzed using HPLC-MS (Q-Exactive Orbitrap Mass Spectrometer (Thermo Scientific) coupled to Thermo Scientific UltiMate 3000 HPLC system). The HPLC setup consisted of a ZIC-PHILIC column (SeQuant, 150×2.1 mm, 5 μm, Merck) with a ZIC-PHILIC guard column (SeQuant, 20×2.1 mm). The aqueous mobile phase solvent was 20 mM ammonium carbonate adjusted to pH 9.4 with 0.1% ammonium hydroxide. The organic mobile phase was acetonitrile. Amino acids and other metabolites were separated over a 15 min linear gradient from 80% organic to 80% aqueous. The column temperature was 45° C., the flow rate 200 μl/min, and the run time 27 min. All metabolites were detected across a mass range of 75-1,000 m/z using the Q-Exactive mass spectrometer at a resolution of 35,000 (at 200 m/z) with electrospray ionization and polarity switching mode. Mass accuracy obtained for all metabolites was below 5 ppm. Data were acquired with Thermo Xcalibur software. The peak areas of different amino acids were determined using Thermo TraceFinder software through which metabolites were identified by the exact mass of the singly charged ion and the known retention time on the HPLC column. Commercially available standard compounds had been analyzed before to determine ion masses and retention times on the ZIC-PHILIC column. Protein quantitation based on the Lowry method was performed for normalization. The figure presents mean+/−SD of three replicates.
# T1 sequence (O14980 whole entry): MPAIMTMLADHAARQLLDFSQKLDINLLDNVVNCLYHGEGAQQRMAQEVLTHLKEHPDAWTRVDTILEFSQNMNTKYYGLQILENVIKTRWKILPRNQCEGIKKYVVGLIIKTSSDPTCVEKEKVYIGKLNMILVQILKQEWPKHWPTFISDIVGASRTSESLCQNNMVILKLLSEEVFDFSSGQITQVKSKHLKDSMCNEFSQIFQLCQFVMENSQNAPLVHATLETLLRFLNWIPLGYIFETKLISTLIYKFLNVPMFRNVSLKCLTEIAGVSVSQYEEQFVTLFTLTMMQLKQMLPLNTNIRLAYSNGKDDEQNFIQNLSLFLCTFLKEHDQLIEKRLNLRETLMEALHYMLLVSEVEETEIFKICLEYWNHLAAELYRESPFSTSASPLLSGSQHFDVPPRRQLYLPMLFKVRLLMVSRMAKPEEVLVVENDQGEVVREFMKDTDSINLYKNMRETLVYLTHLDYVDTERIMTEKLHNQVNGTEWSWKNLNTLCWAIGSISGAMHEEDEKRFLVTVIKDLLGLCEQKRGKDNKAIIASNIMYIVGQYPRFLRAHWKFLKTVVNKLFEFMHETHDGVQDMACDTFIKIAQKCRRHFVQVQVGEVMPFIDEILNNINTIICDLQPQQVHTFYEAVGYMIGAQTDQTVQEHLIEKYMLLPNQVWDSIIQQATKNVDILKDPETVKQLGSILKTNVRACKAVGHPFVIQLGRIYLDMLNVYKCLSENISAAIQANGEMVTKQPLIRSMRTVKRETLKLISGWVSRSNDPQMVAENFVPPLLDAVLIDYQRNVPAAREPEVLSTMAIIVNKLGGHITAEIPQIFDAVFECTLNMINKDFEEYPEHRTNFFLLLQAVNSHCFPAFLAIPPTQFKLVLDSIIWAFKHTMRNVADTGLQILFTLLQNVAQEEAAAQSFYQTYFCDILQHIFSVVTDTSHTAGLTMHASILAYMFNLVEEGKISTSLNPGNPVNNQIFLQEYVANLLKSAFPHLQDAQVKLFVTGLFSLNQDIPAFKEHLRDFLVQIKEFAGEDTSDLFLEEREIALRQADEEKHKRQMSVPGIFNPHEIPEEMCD
compound,measurement,setting,value
CCC(=C/[C@H](C)C/C=C/C(C)=C/[C@@H](C)C(=O)[C@@H](C)[C@H](O)[C@@H](C)C/C(C)=C/C(=O)O)/C=C/[C@@H]1OC(=O)C=C[C@@H]1C [Leptomycin B],nuclear export/localization of exportin1 substrates p65 subunit of NF-κB and APC,exportin1,inhibited nuclear export of two known substrates of exportin1
same,localization of GFP fused to a nuclear export signal (NES),exportin1; 8 h,nuclear accumulation of GFP fused to a nuclear export signal (NES)
same,protein breakdown (degradation of radiolabeled proteins),HeLa cells [1],near annulment of protein breakdown stimulated by short-term starvation
same,localization of proteasomal activity (nucleus vs cytosol),proteasome,preventing the shift in its dominance from the nucleus to the cytosol
same,accelerated degradation of cellular proteins upon starvation,HeLa cells [2],accelerated degradation was prevented
same,gain in amino acids produced by Torin1,HeLa cells [3]; Torin1 plus LMB,significantly inhibited the gain in amino acids produced by Torin1
same,level of Glu,HeLa cells [3]; addition of LMB to Torin1-treated cells,unaffected
